# Measurements from patent US10377719B2, “Trypanosomes inhibitors” (Hoffmann-La Roche Inc., priority 2015, dated 2019).
# System: Trypanosoma brucei rhodesiense STIB900
# Assay: Activity against Trypanosoma brucei rhodesiense STIB900 (Alamar Blue assay)
# Format: cell-based
# Conditions: Trypanosoma brucei, 70 h, bloodstream forms of T. b. rhodesiense STIB 900, 70 h incubation
# Procedure: Activity Against Trypanosoma brucei Rhodesiense STIB900
# This stock was isolated in 1982 from a human patient in Tanzania and after several mouse passages cloned and adapted to axenic culture conditions (Baltz, T., D. Baltz, C. Giroud, and J. Crockett. 1985, Cultivation in a semi-defined medium of animal infective forms of Trypanosoma brucei, T. equiperdum, T. evansi, T. rhodesiense and T. gambiense. EMBO Journal 4:1273-1277). Minimum Essential Medium (50 μl) supplemented with 25 mM HEPES, 1 g/l additional glucose, 1% MEM non-essential amino acids (100×), 0.2 mM 2-mercaptoethanol, 1 mM Na-pyruvate and 15% heat inactivated horse serum was added to each well of a 96-well microtiter plate. Serial drug dilutions of eleven 3-fold dilution steps covering a range from […] were prepared. Then 4×10^3 bloodstream forms of T. b. rhodesiense STIB 900 in 50 μl was added to each well and the plate incubated at 37° C. under a 5% CO2 atmosphere for 70 h. 10 μl Alamar Blue (resazurin, 12.5 mg in 100 ml double-distilled water) was then added to each well and incubation continued for a further 2-4 h (Räz, B., M. Iten, Y. Grether-Buhler, R. Kaminsky, and R. Brun. 1997, The Alamar Blue assay to determine drug sensitivity of African trypanosomes (T.b. rhodesiense and T.b. gambiense) in vitro. Acta Trop 68:139-47). Then the plates were read with a Spectramax Gemini XS microplate fluorometer (Molecular Devices Cooperation, Sunnyvale, Calif., USA) using an excitation wave length of 536 nm and an emission wave length of 588 nm. The IC50 values were calculated by linear regression (Huber, W. Koella, J. C. 1993, A comparison of the three methods of estimating EC50 in studies of drug resistance of malaria parasites. Acta Trop. 55, 257-261) from the sigmoidal dose inhibition curves using SoftmaxPro software (Molecular Devices Cooperation, Sunnyvale, Calif., USA). Melarsoprol is used as control.
row,SMILES,IC50 [µM]
1,"N#CC1(NC(=O)[C@H](Cc2ccc(OC(F)(F)F)c(Cl)c2)NC(=O)c2cc(C(F)(F)F)nn2CC(F)F)CC1 [Example 1, (S)—N-(3-(3-chloro-4-(trifluoromethoxy)phenyl)-1-(1-cyanocyclopropylamino)-1-oxopropan-2-yl)-1-(2,2-difluoroethyl)-3-(trifluoromethyl)-1H-pyrazole-5-carboxamide]",0.003
2,"Cn1nc(C(F)(F)F)cc1C(=O)N[C@@H](Cc1ccc(OC(F)(F)F)c(Cl)c1)C(=O)NC1(C#N)CC1 [Example 2, (S)—N-(3-(3-chloro-4-(trifluoromethoxy)phenyl)-1-(1-cyanocyclopropylamino)-1-oxopropan-2-yl)-1-methyl-3-(trifluoromethyl)-1H-pyrazole-5-carboxamide]",0.005
3,"Cc1cc(C(=O)N[C@@H](Cc2ccc(OC(F)(F)F)c(Cl)c2)C(=O)NC2(C#N)CC2)n(C)n1 [Example 3, (S)—N-(3-(3-chloro-4-(trifluoromethoxy)phenyl)-1-(1-cyanocyclopropylamino)-1-oxopropan-2-yl)-1,3-dimethyl-1H-pyrazole-5-carboxamide]",0.071
4,"Cn1nc(C2CC2)cc1C(=O)N[C@@H](Cc1ccc(OC(F)(F)F)c(Cl)c1)C(=O)NC1(C#N)CC1 [Example 4, (S)—N-(3-(3-chloro-4-(trifluoromethoxy)phenyl)-1-(1-cyanocyclopropylamino)-1-oxopropan-2-yl)-3-cyclopropyl-1-methyl-1H-pyrazole-5-carboxamide]",0.005
5,"Cn1nc(C(C)(C)C)cc1C(=O)N[C@@H](Cc1ccc(OC(F)(F)F)c(Cl)c1)C(=O)NC1(C#N)CC1 [Example 5, (S)-3-tert-butyl-N-(3-(3-chloro-4-(trifluoromethoxy)phenyl)-1-(1-cyanocyclopropylamino)-1-oxopropan-2-yl)-1-methyl-1H-pyrazole-5-carboxamide]",4.43
6,"N#CC1(NC(=O)[C@H](Cc2ccc(OC(F)(F)F)c(Cl)c2)NC(=O)c2ccn(-c3ccc(F)cc3)n2)CC1 [Example 6, (S)—N-(3-(3-chloro-4-(trifluoromethoxy)phenyl)-1-(1-cyanocyclopropylamino)-1-oxopropan-2-yl)-1-(4-fluorophenyl)-1H-pyrazole-3-carboxamide]",0.05
7,"Cn1nc(-c2ccccc2)cc1C(=O)N[C@@H](Cc1ccc(OC(F)(F)F)c(Cl)c1)C(=O)NC1(C#N)CC1 [Example 7, (S)—N-(3-(3-chloro-4-(trifluoromethoxy)phenyl)-1-(1-cyanocyclopropylamino)-1-oxopropan-2-yl)-1-methyl-3-phenyl-1H-pyrazole-5-carboxamide]",0.02
8,"Cc1oc(-c2ccc(Cl)cc2)nc1C(=O)N[C@@H](Cc1ccc(OC(F)(F)F)c(Cl)c1)C(=O)NC1(C#N)CC1 [Example 8, (S)—N-(3-(3-chloro-4-(trifluoromethoxy)phenyl)-1-(1-cyanocyclopropylamino)-1-oxopropan-2-yl)-2-(4-chlorophenyl)-5-methyloxazole-4-carboxamide]",0.068
9,"N#CC1(NC(=O)[C@H](Cc2ccc(OC(F)(F)F)c(Cl)c2)NC(=O)c2cnn(-c3ccc(F)cc3)n2)CC1 [Example 9, (S)—N-(3-(3-chloro-4-(trifluoromethoxy)phenyl)-1-(1-cyanocyclopropylamino)-1-oxopropan-2-yl)-2-(4-fluorophenyl)-2H-1,2,3-triazole-4-carboxamide]",0.009
10,"N#CC1(NC(=O)[C@H](Cc2ccc(OC(F)(F)F)c(Cl)c2)NC(=O)c2cc(-c3ccccc3Cl)n[nH]2)CC1 [Example 10, (S)—N-(3-(3-chloro-4-(trifluoromethoxy)phenyl)-1-(1-cyanocyclopropylamino)-1-oxopropan-2-yl)-3-(2-chlorophenyl)-1H-pyrazole-5-carboxamide]",0.013
11,"N#CC1(NC(=O)[C@H](Cc2ccc(OC(F)(F)F)c(Cl)c2)NC(=O)c2cc(-c3ccc(F)cc3)n[nH]2)CC1 [Example 11, (S)—N-(3-(3-chloro-4-(trifluoromethoxy)phenyl)-1-(1-cyanocyclopropylamino)-1-oxopropan-2-yl)-3-(4-fluorophenyl)-1H-pyrazole-5-carboxamide]",0.278
12,"COc1ccc(-c2cc(C(=O)N[C@@H](Cc3ccc(OC(F)(F)F)c(Cl)c3)C(=O)NC3(C#N)CC3)[nH]n2)cc1 [Example 12, (S)—N-(3-(3-chloro-4-(trifluoromethoxy)phenyl)-1-(1-cyanocyclopropylamino)-1-oxopropan-2-yl)-3-(4-methoxyphenyl)-1H-pyrazole-5-carboxamide]",0.162
13,"N#CC1(NC(=O)[C@H](Cc2ccc(OC(F)(F)F)c(Cl)c2)NC(=O)c2cc(-c3ccccc3)no2)CC1 [Example 13, (S)—N-(3-(3-chloro-4-(trifluoromethoxy)phenyl)-1-(1-cyanocyclopropylamino)-1-oxopropan-2-yl)-3-phenylisoxazole-5-carboxamide]",0.003
14,"Cc1nn(-c2ccccc2)nc1C(=O)N[C@@H](Cc1ccc(OC(F)(F)F)c(Cl)c1)C(=O)NC1(C#N)CC1 [Example 14, (S)—N-(3-(3-chloro-4-(trifluoromethoxy)phenyl)-1-(1-cyanocyclopropylamino)-1-oxopropan-2-yl)-5-methyl-2-phenyl-2H-1,2,3-triazole-4-carboxamide]",0.145
15,"N#CC1(NC(=O)[C@H](Cc2ccc(OC(F)(F)F)c(Cl)c2)NC(=O)c2noc(-c3cccc(F)c3)n2)CC1 [Example 15, (S)—N-(3-(3-chloro-4-(trifluoromethoxy)phenyl)-1-(1-cyanocyclopropylamino)-1-oxopropan-2-yl)-5-(3-fluorophenyl)-1,2,4-oxadiazole-3-carboxamide]",0.005
16,"N#CC1(NC(=O)[C@H](Cc2ccc(OC(F)(F)F)c(Cl)c2)NC(=O)c2cnn(-c3ccccc3)n2)CC1 [Example 16, (S)—N-(3-(3-chloro-4-(trifluoromethoxy)phenyl)-1-(1-cyanocyclopropylamino)-1-oxopropan-2-yl)-2-phenyl-2H-1,2,3-triazole-4-carboxamide]",0.005
17,"Cn1nc(-c2cccc(Cl)c2)cc1C(=O)N[C@@H](Cc1ccc(OC(F)(F)F)c(Cl)c1)C(=O)NC1(C#N)CC1 [Example 17, (S)—N-(3-(3-chloro-4-(trifluoromethoxy)phenyl)-1-(1-cyanocyclopropylamino)-1-oxopropan-2-yl)-3-(3-chlorophenyl)-1-methyl-1H-pyrazole-5-carboxamide]",0.413
18,"N#CC1(NC(=O)[C@H](Cc2ccc(OC(F)(F)F)c(Cl)c2)NC(=O)c2noc(-c3cccc(Cl)c3)n2)CC1 [Example 18, (S)—N-(3-(3-chloro-4-(trifluoromethoxy)phenyl)-1-(1-cyanocyclopropylamino)-1-oxopropan-2-yl)-5-(3-chlorophenyl)-1,2,4-oxadiazole-3-carboxamide]",0.007
19,"N#CC1(NC(=O)[C@H](Cc2ccc(OC(F)(F)F)c(Cl)c2)NC(c2nnc(-c3ccc(Br)cc3)o2)C(F)(F)F)CC1 (stereo partly drawn) [Example 19, (2S)-2-[[1-[5-(4-bromophenyl)-1,3,4-oxadiazol-2-yl]-2,2,2-trifluoroethyl]amino]-3-[3-chloro-4-(trifluoromethoxy)phenyl]-N-(1-cyanocyclopropyl)propanamide]",10.1
20,"N#CC1(NC(=O)[C@H](Cc2ccc(OC(F)(F)F)c(Cl)c2)NC(c2nnc(-c3ccccc3)o2)C(F)(F)F)CC1 (stereo partly drawn) [Example 22, (2S)-3-(3-chloro-4-(trifluoromethoxy)phenyl)-N-(1-cyanocyclopropyl)-2-(2,2,2-trifluoro-1-(5-phenyl-1,3,4-oxadiazol-2-yl)ethylamino)propanamide]",16.6
21,"CSc1ccc(-n2ncc(C(=O)N[C@@H](Cc3ccc(OC(F)(F)F)c(Cl)c3)C(=O)NC3(C#N)CC3)n2)cc1 [Example 23, N-[(2S)-3-[3-chloro-4-(trifluoromethoxy)phenyl]-1-[(1-cyanocyclopropyl)amino]-1-oxopropan-2-yl]-2-(4-methylsulfanylphenyl)triazole-4-carboxamide]",0.067
22,"N#CC1(NC(=O)[C@H](Cc2ccc(OC(F)(F)F)c(Cl)c2)NC(=O)c2cnn(-c3ccc(Cl)cc3)n2)CC1 [Example 24, 2-(4-chlorophenyl)-N-[(2S)-3-[3-chloro-4-(trifluoromethoxy)phenyl]-1-[(1-cyanocyclopropyl)amino]-1-oxopropan-2-yl]triazole-4-carboxamide]",0.022
23,"N#CC1(NC(=O)[C@H](Cc2cccc(Cl)c2)NC(=O)c2cnn(-c3ccc(F)cc3)n2)CC1 [Example 25, N-[(2S)-3-(3-chlorophenyl)-1-[(1-cyanocyclopropyl)amino]-1-oxopropan-2-yl]-2-(4-fluorophenyl)triazole-4-carboxamide]",1.33

# Same assay, conditions: bloodstream forms of T. b. rhodesiense STIB 900, 70 h incubation
row,SMILES,IC50 [µM]
1,"N#CC1(NC(=O)[C@H](Cc2ccc(OC(F)(F)F)c(Cl)c2)NC(c2nnc(-c3ccc(Br)cc3)o2)C(F)(F)F)CC1 (stereo partly drawn) [Example 20, (2S)-2-(1-(5-(4-bromophenyl)-1,3,4-oxadiazol-2-yl)-2,2,2-trifluoroethylamino)-3-(3-chloro-4-(trifluoromethoxy)phenyl)-N-(1-cyanocyclopropyl)propanamide]",16.1
